# According to patent US20250215029A1 (Recludix Pharma, Inc., priority 2022, published 2025):
# Target: T1, pY705-STAT3 in PBMC (Homo sapiens, UniProt P40763)
# T1 construct: Cryopreserved Peripheral Blood Mononuclear Cells (PBMC) are from AllCells; host or cells: cryopreserved PBMC
# Assay: MSD-pSTAT-PBMC Assay (pSTAT3, IL-6 stimulated)
# Type: cell-based
# Settings: PBMC, compound 3 hrs, then 10 ng/mL IL-6 for 10 min; Table 115; read-out: STAT3
# Procedure, shortened: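 pY705-STAT3 was detected electrochemiluminescently on total-STAT3 capture plates, using lysates of human PBMCs given compound for 3 h and then IL-6 (10 ng/mL, 10 min). Values were background-subtracted against unstimulated wells and set relative to DMSO. IC50 was fitted with variable slope.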
# T1 sequence (P40763 whole entry): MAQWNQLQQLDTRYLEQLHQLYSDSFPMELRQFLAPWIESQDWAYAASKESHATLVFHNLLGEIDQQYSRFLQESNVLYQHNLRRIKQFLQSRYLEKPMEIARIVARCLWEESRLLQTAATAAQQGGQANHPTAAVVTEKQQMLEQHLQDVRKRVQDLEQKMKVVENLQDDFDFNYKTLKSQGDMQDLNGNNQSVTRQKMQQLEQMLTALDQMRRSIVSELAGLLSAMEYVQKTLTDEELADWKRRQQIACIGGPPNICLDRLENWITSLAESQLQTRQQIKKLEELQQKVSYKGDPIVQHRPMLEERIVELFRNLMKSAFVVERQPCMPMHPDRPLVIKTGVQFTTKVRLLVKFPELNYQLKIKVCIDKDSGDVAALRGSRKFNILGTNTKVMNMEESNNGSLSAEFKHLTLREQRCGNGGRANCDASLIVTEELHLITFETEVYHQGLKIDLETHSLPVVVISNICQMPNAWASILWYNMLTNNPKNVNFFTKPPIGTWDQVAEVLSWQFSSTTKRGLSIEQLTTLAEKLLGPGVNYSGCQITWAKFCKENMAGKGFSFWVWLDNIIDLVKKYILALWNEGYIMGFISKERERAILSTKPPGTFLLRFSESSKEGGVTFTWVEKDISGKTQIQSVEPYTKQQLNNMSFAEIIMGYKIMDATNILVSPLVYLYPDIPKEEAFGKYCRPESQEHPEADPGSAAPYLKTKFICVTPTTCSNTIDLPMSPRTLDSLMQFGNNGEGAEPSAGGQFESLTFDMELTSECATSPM
row,SMILES,IC50 [µM]
1,"COC[C@H](NP(=O)(Cc1ccc2sc(C(=O)N[C@H]3CCC[C@H]4CC[C@@H](C(=O)N5CC(c6cccnc6)C5)N4C3=O)cc2c1)Oc1ccccc1)C(=O)OCC(C)C (stereo partly drawn) [Compound 945, isobutyl O-methyl-N-(((2-(((3S,6S,9aS)-5-oxo-3-(3-(pyridin-3-yl)azetidine-1-carbonyl)octahydro-1H-pyrrolo[1,2-a]azepin-6-yl)carbamoyl)benzo [b]thiophen-5-yl)methyl)(phenoxy)phosphoryl)-L-serinate]",0.1 to 1
2,"COC[C@H](NP(=O)(Cc1ccc2sc(C(=O)N[C@H]3CCC[C@H]4CC[C@@H](C(=O)N5CC(c6cccnc6)C5)N4C3=O)cc2c1)Oc1ccccc1)C(=O)OCc1ccccc1 (stereo partly drawn) [Compound 946, benzyl O-methyl-N-(((2-(((3S,6S,9aS)-5-oxo-3-(3-(pyridin-3-yl)azetidine-1-carbonyl)octahydro-1H-pyrrolo[1,2-a]azepin-6-yl)carbamoyl)benzo [b]thiophen-5-yl)methyl)(phenoxy)phosphoryl)-L-serinate]",0.1 to 1
3,"CC[C@H](NP(=O)(Cc1ccc2sc(C(=O)N[C@H]3CCC[C@H]4CC[C@@H](C(=O)N5CC(c6cccnc6)C5)N4C3=O)cc2c1)Oc1ccccc1)C(=O)OCC(C)C (stereo partly drawn) [Compound 947, isobutyl (2S)-2-((((2-(((3S,6S,9aS)-5-oxo-3-(3-(pyridin-3-yl)azetidine-1-carbonyl)octahydro-1H-pyrrolo[1,2-a]azepin-6-yl)carbamoyl)benzo [b]thiophen-5-yl)methyl)(phenoxy)phosphoryl)amino) butanoate]",< 0.1
4,"CC(C)COC(=O)[C@@H](NP(=O)(Cc1ccc2sc(C(=O)N[C@H]3CCC[C@H]4CC[C@@H](C(=O)N5CC(c6cccnc6)C5)N4C3=O)cc2c1)Oc1ccccc1)C(C)C (stereo partly drawn) [Compound 948, isobutyl (((2-(((3S,6S,9aS)-5-oxo-3-(3-(pyridin-3-yl)azetidine-1-carbonyl)octahydro-1H-pyrrolo[1,2-a]azepin-6-yl)carbamoyl)benzo [b]thiophen-5-yl)methyl) (phenoxy)phosphoryl)-L-valinate]",1 to 3
5,"CCOC(=O)[C@@H](NP(=O)(Cc1ccc2sc(C(=O)N[C@H]3CCC[C@H]4CC[C@@H](C(=O)N5CC(c6cccnc6)C5)N4C3=O)cc2c1)Oc1ccccc1)C(C)C (stereo partly drawn) [Compound 949, ethyl (((2-(((3S,6S,9aS)-5-oxo-3-(3-(pyridin-3-yl)azetidine-1-carbonyl)octahydro-1H-pyrrolo[1,2-a]azepin-6-yl)carbamoyl)benzo [b]thiophen-5-yl)methyl) (phenoxy)phosphoryl)-L-valinate]",1 to 3
6,"CCCOC(=O)[C@H](C)NP(=O)(Oc1ccccc1)C(F)c1ccc2sc(C(=O)N[C@H]3CCCC[C@H]4CC[C@@H](C(=O)N5CC(OCC(F)F)(c6cccnc6)C5)N4C3=O)cc2c1 (stereo partly drawn) [Compound 950, propyl (((2-(((3S,6S,10aS)-3-(3-(2,2-difluoroethoxy)-3-(pyridin-3-yl)azetidine-1-carbonyl)-5-oxodeca-hydropyrrolo [1,2-a]azocin-6-yl)carbamoyl)benzo [b]thiophen-5-yl)fluoromethyl) (phenoxy)phosphoryl)-L-alaninate]",< 0.1
7,"CCCOC(=O)[C@H](C)NP(=O)(Cc1ccc2sc(C(=O)N[C@H]3CCC[C@H]4CC[C@@H](C(=O)N5CC(c6cnccc6C)C5)N4C3=O)cc2c1)Oc1ccccc1 (stereo partly drawn) [Compound 951, propyl (((2-(((3S,6S,9aS)-3-(3-(4-methylpyridin-3-yl)azetidine-1-carbonyl)-5-oxooctahydro-1H-pyrrolo[1,2-a]azepin-6-yl)carbamoyl)benzo [b]thiophen-5-yl)methyl) (phenoxy)phosphoryl)-L-alaninate]",< 0.1
8,"CCCOC(=O)[C@H](C)NP(=O)(Oc1ccccc1)C(F)c1ccc2sc(C(=O)N[C@H]3CCC[C@H]4CC[C@@H](C(=O)N5CC6(C5)OCc5ccncc56)N4C3=O)cc2c1 (stereo partly drawn) [Compound 952, propyl ((fluoro(2-(((3S,6S,9aS)-5-oxo-3-(1′H-spiro [azetidine-3,3′-furo[3,4-c]pyridine]-1-carbonyl)octahydro-1H-pyrrolo[1,2-a]azepin-6-yl)carbamoyl)benzo [b]thiophen-5-yl)methyl) (phenoxy)phosphoryl)-L-alaninate]",0.1 to 1
9,"CCCOC(=O)[C@H](C)NP(=O)(Oc1ccccc1)C(F)c1ccc2sc(C(=O)N[C@H]3CCC[C@H]4CC[C@@H](C(=O)N5CC(c6cc(F)ccc6OC)C5)N4C3=O)cc2c1 (stereo partly drawn) [Compound 957, propyl ((fluoro(2-(((3S,6S,9aS)-3-(3-(5-fluoro-2-methoxyphenyl)azetidine-1-carbonyl)-5-oxooctahydro-1H-pyrrolo[1,2-a]azepin-6-yl)carbamoyl)benzo [b]thiophen-5-yl)methyl)(phenoxy)phosphoryl)-L-alaninate]",> 3
10,"CCCOC(=O)[C@H](C)NP(=O)(Oc1ccccc1)C(F)c1ccc2sc(C(=O)N[C@H]3CCCC[C@H]4CC[C@@H](C(=O)N[C@H]5CN(C(N)=O)C[C@@H]5F)N4C3=O)cc2c1 (stereo partly drawn) [Compound 958, propyl (((2-(((3S,6S,10aS)-3-(((3S,4S)-1-carbamoyl-4-fluoropyrrolidin-3-yl)carbamoyl)-5-oxodeca-hydropyrrolo [1,2-a]azocin-6-yl)carbamoyl)benzo [b]thiophen-5-yl)fluoromethyl) (phenoxy)phosphoryl)-L-alaninate]",1 to 3
11,"COC1(c2cnccc2C)CN(C(=O)[C@@H]2CC[C@@H]3CCC[C@H](NC(=O)c4cc5cc(C(F)(F)P(=O)(OCCSC(=O)CC(C)C)OCCSC(=O)CC(C)C)ccc5s4)C(=O)N32)C1 [Compound 963, S,S′-((((difluoro(2-(((3S,6S,9aS)-3-(3-methoxy-3-(4-methylpyridin-3-yl)azetidine-1-carbonyl)-5-oxooctahydro-1H-pyrrolo[1,2-a]azepin-6-yl)carbamoyl)benzo [b]thiophen-5-yl)methyl)phosphoryl)bis(oxy))bis(ethane-2,1-diyl)) bis(3-methylbutanethioate)]",0.1 to 1
12,"CCCC(=O)SCCOP(=O)(OCCSC(=O)CCC)C(F)(F)c1ccc2sc(C(=O)N[C@H]3CCC[C@H]4CC[C@@H](C(=O)N5CC(c6nncn6C)C5)N4C3=O)cc2c1 [Compound 964, S,S′-((((difluoro(2-(((3S,6S,9aS)-3-(3-(4-methyl-4H-1,2,4-triazol-3-yl)azetidine-1-carbonyl)-5-oxooctahydro-1H-pyrrolo[1,2-a]azepin-6-yl)carbamoyl)benzo [b]thiophen-5-yl)methyl)phosphoryl)bis(oxy))bis(ethane-2,1-diyl)) dibutanethioate]",0.1 to 1
13,"CC(C)OC(=O)OCOP(=O)(Cc1ccc2[nH]c(C(=O)N[C@H]3CCC[C@H]4CC[C@@H](C(=O)N5CC(c6cccnc6)C5)N4C3=O)cc2c1)OCOC(=O)OC(C)C [Compound 965, diisopropyl (((((2-(((3S,6S,9aS)-5-oxo-3-(3-(pyridin-3-yl)azetidine-1-carbonyl)octahydro-1H-pyrrolo[1,2-a]azepin-6-yl)carbamoyl)-1H-indol-5-yl)methyl)phosphoryl)bis(oxy))bis (methylene)) bis(carbonate)]",0.1 to 1
14,"CC(C)CC(=O)SCCOP(=O)(OCCSC(=O)CC(C)C)C(F)(F)c1ccc2sc(C(=O)N[C@H]3CCC[C@H]4CC[C@@H](C(=O)N5CC(c6nncn6C)C5)N4C3=O)cc2c1 [Compound 966, S,S′-((((difluoro(2-(((3S,6S,9aS)-3-(3-(4-methyl-4H-1,2,4-triazol-3-yl)azetidine-1-carbonyl)-5-oxooctahydro-1H-pyrrolo[1,2-a]azepin-6-yl)carbamoyl)benzo [b]thiophen-5-yl)methyl)phosphoryl)bis(oxy))bis(ethane-2,1-diyl)) bis(3-methylbutanethioate)]",< 0.1
15,"Cn1cnnc1C1CN(C(=O)[C@@H]2CC[C@@H]3CCC[C@H](NC(=O)c4cc5cc(C(F)(F)P(=O)(OCCSC(=O)C(C)(C)C)OCCSC(=O)C(C)(C)C)ccc5s4)C(=O)N32)C1 [Compound 967, S,S′-((((difluoro(2-(((3S,6S,9aS)-3-(3-(4-methyl-4H-1,2,4-triazol-3-yl)azetidine-1-carbonyl)-5-oxooctahydro-1H-pyrrolo[1,2-a]azepin-6-yl)carbamoyl)benzo [b]thiophen-5-yl)methyl)phosphoryl)bis(oxy))bis(ethane-2,1-diyl)) bis(2,2-dimethyl-propanethioate)]",< 0.1
16,"Cc1ccncc1C1CN(C(=O)[C@@H]2CC[C@@H]3CCC[C@H](NC(=O)c4cc5cc(C(F)(F)P(=O)(OCCSC(=O)C(C)(C)C)OCCSC(=O)C(C)(C)C)ccc5s4)C(=O)N32)C1 [Compound 968, S,S′-((((difluoro(2-(((3S,6S,9aS)-3-(3-(4-methylpyridin-3-yl)azetidine-1-carbonyl)-5-oxooctahydro-1H-pyrrolo[1,2-a]azepin-6-yl)carbamoyl)benzo [b]thiophen-5-yl)methyl)phosphoryl)bis(oxy))bis(ethane-2,1-diyl))bis(2,2-dimethyl-propanethioate)]",< 0.1
17,"CCCCOC(=O)[C@@H]1CCCN1P(=O)(Oc1ccccc1)C(F)(F)c1ccc2sc(C(=O)N[C@H]3CCC[C@H]4CC[C@@H](C(=O)N5CC(c6cccnc6)C5)N4C3=O)cc2c1 (stereo partly drawn) [Compound 969, butyl ((difluoro(2-(((3S,6S,9aS)-5-oxo-3-(3-(pyridin-3-yl)azetidine-1-carbonyl)octahydro-1H-pyrrolo[1,2-a]azepin-6-yl)carbamoyl)benzo [b]thiophen-5-yl)methyl)(phenoxy)phosphoryl)-L-prolinate]",> 3
18,"O=C(SCCOP(=O)(OCCSC(=O)c1ccccc1)C(F)(F)c1ccc2sc(C(=O)N[C@H]3CCC[C@H]4CC[C@@H](C(=O)N5CC(c6cccnc6)C5)N4C3=O)cc2c1)c1ccccc1 [Compound 970, S,S′-((((difluoro(2-(((3S,6S,9aS)-5-oxo-3-(3-(pyridin-3-yl)azetidine-1-carbonyl)octahydro-1H-pyrrolo[1,2-a]azepin-6-yl)carbamoyl)benzo [b]thiophen-5-yl)methyl)-phosphoryl)bis(oxy))bis(ethane-2,1-diyl)) dibenzothioate]",< 0.1
